Earlier results as cited in patent US20060211660A1, “Combination therapy for topical application in the treatment of dry eye syndrome” (priority 2005, published 2006).
Like-named read-outs stand apart in the source and are kept apart here.

Tests used:
[1] = for anabolic activity relative to standards: relative to standards (typically testosterone)
[2] = for androgenic (virilizing) activity relative to standards: relative to standards (typically testosterone)

SMILES	anabolic activity relative to standards [1]	androgenic (virilizing) activity relative to standards [2]	other results
C[C@]12CC[C@@H]3c4ccc(O)cc4CC[C@H]3[C@@H]1CC[C@@H]2O [17-β-estradiol]	–	–	improvement in corneal lens transmittance and autofluorescence (0.00025% drops every 6 hours, women already taking 2 mg estriol valerate daily by mouth): varying or marginal improvement
C[C@]12Cc3c[nH]nc3C[C@@H]1CC[C@@H]1[C@@H]2CC[C@@]2(C)[C@H]1CC[C@]2(C)O [stanozolol]	increased	decreased	–
C[C@]12CC[C@@H]3c4ccc(O)cc4CC[C@H]3[C@@H]1C[C@@H](O)[C@@H]2O [estriol]	–	–	improvement in corneal lens transmittance and autofluorescence (post-menopausal patients, low systemic dose 0.25 mg per day): varying or marginal improvement
C[C@]1(O)CC[C@H]2[C@@H]3CCC4=CC(=O)CC[C@]4(C)[C@@]3(F)[C@@H](O)C[C@@]21C [fluoxymesterone]	–	augmented	–
C[C@]12COC(=O)C[C@@H]1CC[C@@H]1[C@@H]2CC[C@@]2(C)[C@H]1CC[C@]2(C)O [oxandrolone, 17 alpha-methyl-17β-hydroxy-2-oxa-5 alpha-androstan-3-one]	increased	decreased	anabolic activity, percent of that of methyltestosterone ([1]; relative to methyltestosterone): 322%; androgenic activity, percent of that of methyltestosterone ([2]; relative to methyltestosterone): 24%
C[C@]12C/C(=C/O)C(=O)C[C@@H]1CC[C@@H]1[C@@H]2CC[C@@]2(C)[C@H]1CC[C@]2(C)O [oxymetholone]	enhanced	unchanged	–
C[C@]12CCC(=O)C[C@@H]1CC[C@@H]1[C@@H]2CC[C@]2(C)[C@@H](O)CC[C@@H]12 [dihydrotestosterone]	enhanced	unchanged	–
CCC(=O)O[C@H]1CC[C@H]2[C@@H]3CCC4=CC(=O)CC[C@@H]4[C@H]3CC[C@]12C [19-nortestosterone propionate]	unchanged	decreased	–
